These results are taken from patent EP4755888A1 (ILAb Co., Ltd., priority 2023, dated 2025).

The term IC50 denotes the concentration needed to halve the response being measured.

Assay [1] addresses T1, PD-L1 expressed on the cell surface (MC38 hPD-L1) (Homo sapiens, UniProt Q9NZQ7).
T1 construct: expressed in transfected cells; host or cells: MC38 mouse colon cancer cell line expressing human PD-L1
The experiment in a line: Internalization of cell surface PD-L1, flow cytometry with fluorescent staining. The settings on record: MC38 hPD-L1 cells, 1 µM, 4 hours; untreated 90% to 99%. In kind it is cell-based. The protocol:
In order to evaluate the internalization of cell surface PD-L1 induced by the compounds of the present invention synthesized according to the above Preparation Examples, a flow cytometry experiment using fluorescent staining was conducted as described below.
Specifically, a mouse colon cancer cell line expressing human PD-L1 (MC38 hPD-L1) was seeded into a 24-well plate at a density of 5 x 10^5 cells per well, followed by treatment with Compounds 206 to 227 at a concentration of 1 µM and incubation for 4 hours. After 4 hours, the compound-treated MC38 hPD-L1 cells were collected and stained with PE anti-hPD-L1 fluorecence at room temperature for 30 minutes. The rate of PD-L1 expression on the cell surface was then quantified using flow cytometry.
In general terms: Flow cytometry measures light scatter and fluorescence of single cells or particles in a stream.

Assay [2] has as its target PD-1/PD-L1 (Homo sapiens, UniProt Q9NZQ7). The experiment in a line: TR-FRET PD-1/PD-L1 binding inhibition at the molecular level (free proteins). The settings on record: Tag1-PD-L1 and Tag2-PD-1 proteins, twelve concentrations from 200 nM, 2 hours at room temperature, read-out: FRET assay (IC50). The procedure, abridged: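 HTRF read-out at 665/620 nm after 2 h at room temperature. Detection used anti-Tag1 Eu cryptate plus anti-Tag2 XL665 antibodies. Tagged PD-L1 and PD-1 proteins were pre-mixed with compound across twelve […] 1:2 dilutions starting at 200 nM.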
On the technique in general: TR-FRET usually uses a lanthanide donor and a delayed reading to cut background.

Some results are limits rather than exact numbers.

T1 sequence (Q9NZQ7 19-290): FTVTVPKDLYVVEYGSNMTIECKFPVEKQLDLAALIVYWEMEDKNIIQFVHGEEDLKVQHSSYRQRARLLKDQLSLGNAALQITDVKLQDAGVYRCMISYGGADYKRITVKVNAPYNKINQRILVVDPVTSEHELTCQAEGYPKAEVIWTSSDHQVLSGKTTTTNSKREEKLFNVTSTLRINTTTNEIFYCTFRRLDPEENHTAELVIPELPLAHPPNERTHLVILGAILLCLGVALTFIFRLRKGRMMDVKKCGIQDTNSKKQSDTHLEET
Sequence of PD-1/PD-L1 (Q9NZQ7 19-238 limits assumed): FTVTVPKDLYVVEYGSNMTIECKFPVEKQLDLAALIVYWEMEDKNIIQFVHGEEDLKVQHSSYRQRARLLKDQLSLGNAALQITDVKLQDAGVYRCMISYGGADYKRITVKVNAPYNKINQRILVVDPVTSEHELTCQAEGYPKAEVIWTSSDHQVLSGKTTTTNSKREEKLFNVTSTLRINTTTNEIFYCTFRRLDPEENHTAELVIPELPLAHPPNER

As for `O=C(Nc1cccc(-c2cccc(NC(=O)c3cc4n(n3)CCC[C@H]4N3CC[C@@H](C(=O)O)C3)c2Cl)c1Cl)c1ccc(CNCCO)cn1` [Compound 209, (R)-1-((R)-2-((2,2'-dichloro-3'-(5-(((2-hydroxyethyl)amino)methyl)picolinamido)-[1,1'-biphenyl]-3-yl)carbamoyl)-4,5,6,7-tetrahydropyrazolo[1,5-a]pyridin-4-yl)pyrrolidine-3-carboxylic acid], the “Cell surface PD-L1 expression level (%)” value in assay [1] was determined as 71.0%. For the same molecule, the IC50 in assay [2] was less than 0.01 µM. On the same counts, the results for `Cc1c(NC(=O)c2cc3n(n2)CCC[C@H]3N2CC[C@@H](C(=O)O)C2)cccc1-c1cccc(Nc2nc(C(F)F)nc3cc(CN4CC[C@@H](O)C4)cnc23)c1C` [Compound 211, (R)-1-((R)-2-((3'-((2-(difluoromethyl)-7-(((R)-3-hydroxypyrrolidin-1-yl)methyl)pyrido[3,2-d]pyrimidin-4-yl)amino)-2,2'-dimethyl-[1,1'-biphenyl]-3-yl)carbamoyl)-4,5,6,7-tetrahydropyrazolo[1,5-a]pyridin-4-yl)pyrrolidine-3-carboxylic acid] are 75.3% and less than 0.01 µM. As to `Cc1c(NC(=O)c2cc3n(n2)CCC[C@H]3NCC(=O)O)cccc1-c1cccc(Nc2nc(C(F)F)nc3cc(CN4CC[C@@H](O)C4)cnc23)c1C` [Compound 213, 2-(((R)-2-((3'-((2-(difluoromethyl)-7-(((R)-3-hydroxypyrrolidin-1-yl)methyl)pyrido[3,2-d]pyrimidin-4-yl)amino)-2,2'-dimethyl-[1,1'-biphenyl]-3-yl)carbamoyl)-4,5,6,7-tetrahydropyrazolo[1,5-a]pyridin-4-yl)amino)acetic acid], in assay [1], the “Cell surface PD-L1 expression level (%)” value was 73.9%. For the same molecule, the concentration for half-maximal inhibition (IC50) in assay [2] was less than 0.01 µM. For the molecule `Cc1c(NC(=O)c2ccc(CN3CC[C@@H](O)C3)cn2)cccc1-c1cccc(NC(=O)c2cc3n(n2)CCC[C@H]3NCCO)c1C` [Compound 215, (R)-4-((2-hydroxyethyl)amino)-N-(3'-(5-(((R)-3-hydroxypyrrolidin-1-yl)methyl)picolinamido)-2,2'-dimethyl-[1,1'-biphenyl]-3-yl)-4,5,6,7-tetrahydropyrazolo[1,5-a]pyridine-2-carboxamide], in assay [1], the “Cell surface PD-L1 expression level (%)” value was found to be 88.7%. Further, the IC50 in assay [2] was less than 0.01 µM.

Turning to `Cc1c(NC(=O)c2cc3n(n2)CCC[C@@H]3N2CCC(C(=O)O)CC2)cccc1-c1cccc(Nc2nc(C(F)(F)F)nc3cc(CN4CC[C@@H](O)C4)cnc23)c1C` [Compound 342, 1-((S)-2-((3'-((7-(((R)-3-hydroxypyrrolidin-1-yl)methyl)-2-(trifluoromethyl)pyrido[3,2-d]pyrimidin-4-yl)amino)-2,2'-dimethyl-[1,1'-biphenyl]-3-yl)carbamoyl)-4,5,6,7-tetrahydropyrazolo[1,5-a]pyridin-4-yl)piperidine-4-carboxylic acid], the half-inhibitory concentration (IC50) in assay [2] is 0.01 to 0.1 µM. Same read-out and setting: as for `Cc1c(NC(=O)c2cc3n(n2)CCC[C@@H]3N2CC[C@@H](O)C2)cccc1-c1cccc(Nc2nc(C(F)(F)F)nc3cc(CN4CC[C@@H](O)C4)cnc23)c1C` [Compound 344], the figure is 0.01 to 0.1 µM. On the same count and under the same terms, as for `Cc1c(NC(=O)c2cc3n(n2)CCC[C@H]3N2CC[C@@H](O)C2)cccc1-c1cccc(Nc2nc(C(F)(F)F)nc3cc(CN4CC[C@@H](O)C4)cnc23)c1C` [Compound 345], the figure is 0.01 to 0.1 µM; as for `CN[C@H]1CCCn2nc(C(=O)Nc3cccc(-c4cccc(Nc5nccc6cc(CN7CC[C@@H](O)C7)cnc56)c4C)c3C)cc21` [Compound 346, (S)-N-(3'-((3-(((R)-3-hydroxypyrrolidin-1-yl)methyl)-1,7-naphthyridin-8-yl)amino)-2,2'-dimethyl-[1,1'-biphenyl]-3-yl)-4-(methylamino)-4,5,6,7-tetrahydropyrazolo[1,5-a]pyridine-2-carboxamide], less than 0.01 µM. Turning to `CN[C@@H]1CCCn2nc(C(=O)Nc3cccc(-c4cccc(Nc5nccc6cc(CN7CC[C@@H](O)C7)cnc56)c4C)c3C)cc21` [Compound 347, (R)-N-(3'-((3-(((R)-3-hydroxypyrrolidin-1-yl)methyl)-1,7-naphthyridin-8-yl)amino)-2,2'-dimethyl-[1,1'-biphenyl]-3-yl)-4-(methylamino)-4,5,6,7-tetrahydropyrazolo[1,5-a]pyridine-2-carboxamide], the IC50 in assay [2] was less than 0.01 µM. Turning to `CN[C@H]1CCCn2nc(C(=O)Nc3cccc(-c4cccc(NC(=O)c5ccc(CN6CC[C@@H](O)C6)cn5)c4C)c3C)cc21` [Compound 348, (S)-N-(3'-(5-(((R)-3-hydroxypyrrolidin-1-yl)methyl)picolinamido)-2,2'-dimethyl-[1,1'-biphenyl]-3-yl)-4-(methylamino)-4,5,6,7-tetrahydropyrazolo[1,5-a]pyridine-2-carboxamide], in assay [2], the IC50 is less than 0.01 µM.

For the molecule `CN[C@@H]1CCCn2nc(C(=O)Nc3cccc(-c4cccc(NC(=O)c5ccc(CN6CC[C@@H](O)C6)cn5)c4C)c3C)cc21` [Compound 349, (R)-N-(3'-(5-(((R)-3-hydroxypyrrolidin-1-yl)methyl)picolinamido)-2,2'-dimethyl-[1,1'-biphenyl]-3-yl)-4-(methylamino)-4,5,6,7-tetrahydropyrazolo[1,5-a]pyridine-2-carboxamide], the half-inhibitory concentration (IC50) in assay [2] is 0.01 to 0.1 µM. The same measure, in the same setting: as for `CN[C@H]1CCCn2nc(C(=O)Nc3cccc(-c4cccc(NC(=O)c5ccc(CN6CC[C@@H](O)C6)cn5)c4Cl)c3Cl)cc21` [Compound 350, (S)-N-(2,2'-dichloro-3'-(5-(((R)-3-hydroxypyrrolidin-1-yl)methyl)picolinamido)-[1,1'-biphenyl]-3-yl)-4-(methylamino)-4,5,6,7-tetrahydropyrazolo[1,5-a]pyridine-2-carboxamide], the figure is 0.01 to 0.1 µM; as for `CN[C@@H]1CCCn2nc(C(=O)Nc3cccc(-c4cccc(NC(=O)c5ccc(CN6CC[C@@H](O)C6)cn5)c4Cl)c3Cl)cc21` [Compound 351, (R)-N-(2,2'-dichloro-3'-(5-(((R)-3-hydroxypyrrolidin-1-yl)methyl)picolinamido)-[1,1'-biphenyl]-3-yl)-4-(methylamino)-4,5,6,7-tetrahydropyrazolo[1,5-a]pyridine-2-carboxamide], 0.01 to 0.1 µM; as for `CN[C@H]1CCCn2nc(C(=O)Nc3cccc(-c4cccc(Nc5nc(C(F)(F)F)nc6cc(CN7CC[C@@H](O)C7)cnc56)c4Cl)c3Cl)cc21` [Compound 352, (S)-N-(2,2'-dichloro-3'-((7-(((R)-3-hydroxypyrrolidin-1-yl)methyl)-2-(trifluoromethyl)pyrido[3,2-d]pyrimidin-4-yl)amino)-[1,1'-biphenyl]-3-yl)-4-(methylamino)-4,5,6,7-tetrahydropyrazolo[1,5-a]pyridine-2-carboxamide], 0.01 to 0.1 µM. Same read-out and setting: as for `CN[C@@H]1CCCn2nc(C(=O)Nc3cccc(-c4cccc(Nc5nc(C(F)(F)F)nc6cc(CN7CC[C@@H](O)C7)cnc56)c4Cl)c3Cl)cc21` [Compound 353, (R)-N-(2,2'-dichloro-3'-((7-(((R)-3-hydroxypyrrolidin-1-yl)methyl)-2-(trifluoromethyl)pyrido[3,2-d]pyrimidin-4-yl)amino)-[1,1'-biphenyl]-3-yl)-4-(methylamino)-4,5,6,7-tetrahydropyrazolo[1,5-a]pyridine-2-carboxamide], the figure is 0.01 to 0.1 µM; as for `CN[C@H]1CCCn2nc(C(=O)Nc3cccc(-c4cccc(Nc5nc(C(F)F)nc6cc(CN7CC[C@@H](O)C7)cnc56)c4Cl)c3Cl)cc21` [Compound 354, (S)-N-(2,2'-dichloro-3'-((2-(difluoromethyl)-7-(((R)-3-hydroxypyrrolidin-1-yl)methyl)pyrido[3,2-d]pyrimidin-4-yl)amino)-[1,1'-biphenyl]-3-yl)-4-(methylamino)-4,5,6,7-tetrahydropyrazolo[1,5-a]pyridine-2-carboxamide], 0.01 to 0.1 µM.

Regarding `CN[C@@H]1CCCn2nc(C(=O)Nc3cccc(-c4cccc(Nc5nc(C(F)F)nc6cc(CN7CC[C@@H](O)C7)cnc56)c4Cl)c3Cl)cc21` [Compound 355, (R)-N-(2,2'-dichloro-3'-((2-(difluoromethyl)-7-(((R)-3-hydroxypyrrolidin-1-yl)methyl)pyrido[3,2-d]pyrimidin-4-yl)amino)-[1,1'-biphenyl]-3-yl)-4-(methylamino)-4,5,6,7-tetrahydropyrazolo[1,5-a]pyridine-2-carboxamide], the half-maximal inhibitory concentration (IC50) in assay [2] was in the range of 0.01 to 0.1 µM.

With `CN[C@H]1CCCn2nc(C(=O)Nc3cccc(-c4cccc(Nc5nc(C(F)(F)F)nc6cccnc56)c4Cl)c3Cl)cc21` [Compound 356, (S)-N-(2,2'-dichloro-3'-((2-(trifluoromethyl)pyrido[3,2-d]pyrimidin-4-yl)amino)-[1,1'-biphenyl]-3-yl)-4-(methylamino)-4,5,6,7-tetrahydropyrazolo[1,5-a]pyridine-2-carboxamide], the concentration for half-maximal inhibition (IC50) in assay [2] fell in the range of 0.01 to 0.1 µM.

For `CN[C@@H]1CCCn2nc(C(=O)Nc3cccc(-c4cccc(Nc5nc(C(F)(F)F)nc6cccnc56)c4Cl)c3Cl)cc21` [Compound 357, (R)-N-(2,2'-dichloro-3'-((2-(trifluoromethyl)pyrido[3,2-d]pyrimidin-4-yl)amino)-[1,1'-biphenyl]-3-yl)-4-(methylamino)-4,5,6,7-tetrahydropyrazolo[1,5-a]pyridine-2-carboxamide], the IC50 in assay [2] lay in the range of 0.01 to 0.1 µM.
